US8586588B2, “Aryl pyridazinone derivatives and their use as H3 receptor ligands” (Cephalon, Inc., priority 2006, dated 2013)
Like-named read-outs stand apart in the source and are kept apart here.

How the values were obtained:
human H3 receptor = molecular target: T1, human H3 receptor (Homo sapiens, UniProt Q9Y5N1); test: Human H3 radioligand binding ([3H]-N-alpha-methylhistamine, CHO cell membranes, SPA); settings: binding constant as letter class
T1 construct: expressed in transfected cells
Procedure, shortened: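 CHO cell membranes expressing human H3 (10 μg protein/well) incubated 4 h at room temperature, in the dark, with ~1 nM [3H]-N-alpha-methylhistamine, compounds (0.01 nM-30 μM) and SPA beads in 50 mM Tris HCl pH 7.4, 5 mM MgCl2, 0.1% BSA. Non-specific binding defined with 10 μM clobenpropit.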

[1] = molecular target: T2, rat histamine H3 receptor (Rattus norvegicus, UniProt Q9QYN8); test: Rat H3 radioligand binding ([3H]-N-alpha-methylhistamine, CHO-A3 cell membranes, SPA); settings: binding constant as letter class
T2 construct: encoding the entire 445-amino-acid rat histamine H3 receptor; expressed in transfected cells
Procedure, shortened: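 Membranes from CHO-A3 cells stably expressing rat H3 (10 μg protein) incubated 4 h at room temperature in 50 mM Tris-HCl pH 7.4, 5 mM MgCl2, 0.1% BSA with ~1 nM [3H]-N-alpha-methylhistamine and compound (0.01 nM-30 μM). Bound radioligand read by scintillation proximity; nonspecific binding with 10 μM clobenpropit.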

T2 sequence (Q9QYN8 whole entry): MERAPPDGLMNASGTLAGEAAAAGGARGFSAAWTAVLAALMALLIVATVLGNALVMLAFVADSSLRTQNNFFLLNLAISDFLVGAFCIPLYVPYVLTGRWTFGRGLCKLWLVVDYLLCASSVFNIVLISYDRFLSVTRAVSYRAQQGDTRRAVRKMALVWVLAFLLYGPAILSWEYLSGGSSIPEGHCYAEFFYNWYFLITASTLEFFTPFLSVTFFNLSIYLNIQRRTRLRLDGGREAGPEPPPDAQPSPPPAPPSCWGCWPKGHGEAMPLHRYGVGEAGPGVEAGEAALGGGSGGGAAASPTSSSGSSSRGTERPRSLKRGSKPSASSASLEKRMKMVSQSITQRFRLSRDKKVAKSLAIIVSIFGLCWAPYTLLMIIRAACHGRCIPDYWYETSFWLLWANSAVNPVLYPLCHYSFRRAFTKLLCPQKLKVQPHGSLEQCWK
T1 sequence (Q9Y5N1 whole entry): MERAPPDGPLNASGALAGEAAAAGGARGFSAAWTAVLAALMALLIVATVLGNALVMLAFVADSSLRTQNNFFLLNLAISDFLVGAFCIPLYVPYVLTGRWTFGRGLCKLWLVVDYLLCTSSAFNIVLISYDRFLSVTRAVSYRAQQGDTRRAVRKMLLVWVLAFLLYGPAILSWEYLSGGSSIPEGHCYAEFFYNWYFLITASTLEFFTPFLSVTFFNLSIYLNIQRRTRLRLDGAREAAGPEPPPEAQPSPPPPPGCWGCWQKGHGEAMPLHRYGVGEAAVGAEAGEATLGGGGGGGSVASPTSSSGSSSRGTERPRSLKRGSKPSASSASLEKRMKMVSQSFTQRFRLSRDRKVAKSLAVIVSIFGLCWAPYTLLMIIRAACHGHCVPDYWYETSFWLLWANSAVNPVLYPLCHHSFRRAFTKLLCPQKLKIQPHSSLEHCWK

Row | SMILES | melting point | Ki (human H3 receptor; Table B) [nM] | Ki ([1]; Table B, read-out: rat H3 Ki) [nM] | Ki (human H3 receptor; Table A) [nM] | Ki ([1]; Table A, read-out: Rat H3 Ki) [nM]
1 | C[C@@H]1CCCN1CCCOc1ccc(C2=NNC(=O)CC2(C)C)cc1 [Example 182, 5,5-Dimethyl-6-{4-[3-((R)-2-methyl-pyrrolidin-1-yl)-propoxy]-phenyl}-4,5-dihydro-2H-pyridazin-3-one] | 118 to 121 °C | 0.1 to 100 | 0.1 to 100 | – | –
2 | O=c1ccc(-c2ccc(OCC(O)CN3CCCCC3)cc2)n[nH]1 (stereo not drawn) [Example 255, 6-[4-(2-Hydroxy-3-piperidin-1-yl-propoxy)-phenyl]-2H-pyridazin-3-one] | 185 °C | 101 to 500 | 101 to 500 | – | –
3 | O=C1CCC(c2cc(F)c(OC3CCN(C4CCC4)CC3)c(F)c2)=NN1 [Example 187, 6-[4-(1-Cyclobutyl-piperidin-4-yloxy)-3,5-difluoro-phenyl]-4,5-dihydro-2H-pyridazin-3-one] | 162 to 164 °C | 0.1 to 100 | 0.1 to 100 | – | –
4 | C[C@@H]1CCCN1CCCOc1ccc(-n2nc(-c3ccccc3)ccc2=O)cc1 [Example 200, 2-{4-[3-((R)-2-Methyl-pyrrolidin-1-yl)-propoxy]-phenyl}-6-phenyl-2H-pyridazin-3-one] | 86 to 89 °C | 0.1 to 100 | 0.1 to 100 | – | –
5 | Cc1cc(OCCCN2CCCCC2)ccc1-c1ccc(=O)[nH]n1 [Example 137, 6-[2-Methyl-4-(3-piperidin-1-yl-propoxy)-phenyl]-2H-pyridazin-3-one] | 114 °C (dec.) | 0.1 to 100 | 0.1 to 100 | – | –
6 | Cc1cc(OCCCN2CCCCC2)ccc1-c1cn[nH]c(=O)c1 [Example 233, 5-[2-Methyl-4-(3-piperidin-1-yl-propoxy)-phenyl]-2H-pyridazin-3-one] | 112 to 113 °C | 0.1 to 100 | 101 to 500 | – | –
7 | O=C1CCC(c2ccc(OC3CCN(C4CCC4)CC3)nc2)=NN1C1CCC1 [Example 177, 2-Cyclobutyl-6-[6-(1-cyclobutyl-piperidin-4-yloxy)-pyridin-3-yl]-4,5-dihydro-2H-pyridazin-3-one] | 146 to 149 °C | 0.1 to 100 | 0.1 to 100 | – | –
8 | O=C1CCC(c2ccc(OC3CCN(C4CCCC4)CC3)cc2)=NN1C1CCC1 [Example 164, 2-Cyclobutyl-6-[4-(1-cyclopentyl-piperidin-4-yloxy)-phenyl]-4,5-dihydro-2H-pyridazin-3-one] | 100 to 104 °C | 0.1 to 100 | 0.1 to 100 | – | –
9 | C[C@@H]1CCCN1CCCOc1ccc(C2=NNC(=O)C3CCC23)cc1 (stereo partly drawn) [Example 173, 5-{4-[3-((R)-2-Methyl-pyrrolidin-1-yl)-propoxy]-phenyl}-3,4-diaza-bicyclo[4.2.0]oct-4-en-2-one] | 218 to 220 °C | 0.1 to 100 | 0.1 to 100 | – | –
10 | C[C@@H]1CCCN1CCCOc1ccc(-c2ccc(=O)[nH]n2)cn1 [Example 146, 6-{6-[3-((R)-2-Methyl-pyrrolidin-1-yl)-propoxy]-pyridin-3-yl}-2H-pyridazin-3-one] | 178 to 181 °C | 0.1 to 100 | 0.1 to 100 | – | –
11 | O=c1ccc(-c2cc(F)c(OC3CCN(C4CCC4)CC3)c(F)c2)n[nH]1 [Example 188, 6-[4-(1-Cyclobutyl-piperidin-4-yloxy)-3,5-difluoro-phenyl]-2H-pyridazin-3-one] | 195 to 197 °C | 0.1 to 100 | 0.1 to 100 | – | –
12 | CCc1cc(=O)[nH]nc1-c1ccc(OCCCN2CCC[C@H]2C)cc1 [Example 211, 5-Ethyl-6-{4-[3-((R)-2-methyl-pyrrolidin-1-yl)-propoxy]-phenyl}-2H-pyridazin-3-one] | 272 to 275 °C | 0.1 to 100 | 0.1 to 100 | – | –
13 | C[C@@H]1CCCN1CCCOc1ccc(-c2ccc(=O)[nH]n2)c(F)c1 [Example 214, 6-{2-Fluoro-4-[3-((R)-2-methyl-pyrrolidin-1-yl)-propoxy]-phenyl}-2H-pyridazin-3-one] | 220 to 222 °C | 0.1 to 100 | 0.1 to 100 | – | –
14 | Cc1cccc(-n2ncc(-c3ccc(OCCCN4CCC[C@H]4C)cc3)cc2=O)n1 [Example 98, 2-(6-Methyl-pyridin-2-yl)-5-{4-[3-((R)-2-methyl-pyrrolidin-1-yl)-propoxy]-phenyl}-2H-pyridazin-3-one] | 118 to 120 °C | 0.1 to 100 | 0.1 to 100 | – | –
15 | C[C@H](COc1ccc(-c2cn[nH]c(=O)c2)cc1)CN1CCCCC1 [Example 227, 5-[4-((S)-2-Methyl-3-piperidin-1-yl-propoxy)-phenyl]-2H-pyridazin-3-one] | 145 to 148 °C | 0.1 to 100 | 0.1 to 100 | – | –
16 | O=C1CCC(c2ccc(OCCCN3CCCCC3)cc2)=NN1CC(F)(F)F [Example 169, 6-{4-[3-piperidin-1-yl-propoxy]-phenyl}-2-(2,2,2-trifluoro-ethyl)-4,5-dihydro-2H-pyridazin-3-one] | 87 to 89 °C | 0.1 to 100 | 0.1 to 100 | – | –
17 | O=c1ccc(-c2ccc(OC3CCN(C4CCC4)CC3)cc2)n[nH]1 [Example 155, 6-[4-(1-Cyclobutyl-piperidin-4-yloxy)-phenyl]-2H-pyridazin-3-one] | 215 to 220 °C | 0.1 to 100 | 0.1 to 100 | – | –
18 | C[C@@H]1CCCN1CCCOc1ccc(-c2ccc(=O)n(CCO)n2)cc1 [Example 131, 2-(2-Hydroxy-ethyl)-6-{4-[3-((R)-2-methyl-pyrrolidin-1-yl)-propoxy]-phenyl}-2H-pyridazin-3-one] | 95 to 98 °C | 0.1 to 100 | 0.1 to 100 | – | –
19 | C[C@@H]1CCCN1C[C@H](O)COc1ccc(-c2ccc(=O)[nH]n2)cc1 [Example 257, 6-{4-[(S)-2-Hydroxy-3-((R)-2-methyl-pyrrolidin-1-yl)-propoxy]-phenyl}-2H-pyridazin-3-one] | 156 °C | 0.1 to 100 | 0.1 to 100 | – | –
20 | Cn1nc(-c2ccc(OCC3CCN(C(=O)OC(C)(C)C)CC3)cc2)c2ccccc2c1=O [Example 62, 4-[4-(3-Methyl-4-oxo-3,4-dihydro-phthalazin-1-yl)-phenoxymethyl]-piperidine-1-carboxylic acid tert-butyl ester] | 167 to 169 °C | – | – | > 1000 | > 1000
21 | O=c1ccc(-c2ccc(OC[C@H](O)CN3CCCCC3)cc2)n[nH]1 [Example 259, 6-[4-((R)-2-Hydroxy-3-piperidin-1-yl-propoxy)-phenyl]-2H-pyridazin-3-one] | 167 °C | 101 to 500 | 101 to 500 | – | –

The next lines start with the values.

Row | melting point | Ki (human H3 receptor; Table B) [nM] | Ki ([1]; Table B, read-out: rat H3 Ki) [nM] | Ki (human H3 receptor; Table A) [nM] | Ki ([1]; Table A, read-out: Rat H3 Ki) [nM] | SMILES
22 | > 255 °C (dec.) | 0.1 to 100 | 0.1 to 100 | – | – | O=C1NN=C(c2ccc(OC3CCN(C4CCC4)CC3)cc2)C2CCCC12 (stereo not drawn) [Example 174, 4-[4-(1-Cyclobutyl-piperidin-4-yloxy)-phenyl)-2,4a,5,6,7,7a-hexahydro-cyclopenta[d]pyridazin-1-one]
23 | 183 to 185 °C | 0.1 to 100 | 0.1 to 100 | – | – | COCn1ncc(-c2ccc(OCCCN3CCC[C@H]3C)cc2)cc1=O [Example 224, 2-Methoxymethyl-5-{4-[3-((R)-2-methyl-pyrrolidin-1-yl)-propoxy]-phenyl}-2H-pyridazin-3-one]
24 | > 200 °C (dec.) | 0.1 to 100 | 101 to 500 | – | – | C[C@@H]1CCCN1CCCOc1ccc(-c2ccc(=O)[nH]n2)cc1C#N [Example 129, 2-[3-((R)-2-Methyl-pyrrolidin-1-yl)-propoxy]-5-(6-oxo-1,6-dihydro-pyridazin-3-yl)-benzonitrile]
25 | 211 to 213 °C | 0.1 to 100 | 0.1 to 100 | – | – | O=c1ccc(-c2ccc(OC3CCN(C4CCCC4)CC3)cc2)n[nH]1 [Example 154, 6-[4-(1-Cyclopentyl-piperidin-4-yloxy)-phenyl]-2H-pyridazin-3-one]
26 | 155 to 158 °C | 0.1 to 100 | 101 to 500 | – | – | O=c1ccc(-c2ccc(OCCCN3CCCCC3)nc2)n[nH]1 [Example 147, 6-[6-(3-Piperidin-1-yl-propoxy)-pyridin-3-yl]-2H-pyridazin-3-one]
27 | 196 to 198 °C | 0.1 to 100 | 0.1 to 100 | – | – | O=C1CCC(c2ccc(OC3CCN(C4CCC4)CC3)cc2)=NN1 [Example 150, 6-[4-(1-Cyclobutyl-piperidin-4-yloxy)-phenyl]-4,5-dihydro-2H-pyridazin-3-one]
28 | 140 to 142 °C | 0.1 to 100 | 0.1 to 100 | – | – | C[C@@H]1CCCN1CCCOc1ccc(C2=NNC(=O)C(C)(C)C2)cc1 [Example 179, 4,4-Dimethyl-6-{4-[3-((R)-2-methyl-pyrrolidin-1-yl)-propoxy]-phenyl}-4,5-dihydro-2H-pyridazin-3-one]
29 | 95 to 98 °C | 0.1 to 100 | 101 to 500 | – | – | CN(CCCOc1ccc(-c2ccc(=O)[nH]n2)cc1)C1CCCC1 [Example 242, 6-{4-[3-(Cyclopentyl-methyl-amino)-propoxy]-phenyl}-2H-pyridazin-3-one]
30 | 169 to 170 °C | 0.1 to 100 | 0.1 to 100 | – | – | Cc1onc2c(=O)[nH]nc(-c3ccc(OCCCN4CCC[C@H]4C)cc3)c12 [Example 208, 3-Methyl-4-{4-[3-((R)-2-methyl-pyrrolidin-1-yl)-propoxy]-phenyl}-6H-isoxazolo[3,4-d]pyridazin-7-one]
31 | 186 °C (dec.) | 0.1 to 100 | 0.1 to 100 | – | – | O=c1ccc(-c2ccc(OCCCN3CCCCC3)cc2)n[nH]1 [Example 134, 6-[4-(3-Piperidin-1-yl-propoxy)-phenyl]-2H-pyridazin-3-one]
